# Source: patent US20170348343A1, “METHODS OF TREATING HEPATITIS E VIRAL INFECTION” (Gilead Pharmasset LLC, priority 2016, published 2017)
# Test system: HEV
# Assay: HEV RNA test in a human subject with HEV infection (case, Example 1)
# Format: in vivo
# Method: A human subject was identified as having AIDS, Kaposi's sarcoma, non-Hodgkin's lymphoma, compensated cirrhosis, and a history of alcoholism. An HEV RNA test of the subject was conducted, and the result was positive, at approximately 20,000 IU/mL. The subject was started on ribavirin monotherapy, wherein ribavirin was administered to the subject at 800 mg once per day. […] The subject was then started on a treatment wherein ribavirin administration was continued at 800 mg per day and sofosbuvir was also administered at 400 mg per day. After four weeks of such treatment, the subject's HEV RNA levels were below the lower limit of detection of about 25 IU/mL.
Structure (SMILES),"HEV status (ribavirin monotherapy 800 mg once per day for over one year, human subject, baseline HEV RNA approximately 20,000 IU/mL)","HEV RNA levels (sofosbuvir 400 mg per day together with continued ribavirin 800 mg per day, after four weeks, same subject, lower limit of detection about 25 IU/mL) [IU/mL]"
NC(=O)c1ncn([C@@H]2O[C@H](CO)[C@@H](O)[C@H]2O)n1 [ribavirin],remained HEV-positive,–
"CC(C)OC(=O)[C@H](C)N[P@](=O)(OC[C@H]1O[C@@H](n2ccc(=O)[nH]c2=O)[C@](C)(F)[C@@H]1O)Oc1ccccc1 [sofosbuvir, (S)-isopropyl 2-(((S)-(((2R,3R,4R,5R)-5-(2,4-dioxo-3,4-dihydropyrimidin-1(2H)-yl)-4-fluoro-3-hydroxy-4-methyltetrahydrofuran-2-yl)methoxy)(phenoxy)phosphoryl)amino)propanoate]",–,< 25
